pIC50: −log10 of the molar value.

In this assay the target is T1, human adenosine A2b receptor (Homo sapiens, UniProt P29275).
T1 sequence (P29275 1-332): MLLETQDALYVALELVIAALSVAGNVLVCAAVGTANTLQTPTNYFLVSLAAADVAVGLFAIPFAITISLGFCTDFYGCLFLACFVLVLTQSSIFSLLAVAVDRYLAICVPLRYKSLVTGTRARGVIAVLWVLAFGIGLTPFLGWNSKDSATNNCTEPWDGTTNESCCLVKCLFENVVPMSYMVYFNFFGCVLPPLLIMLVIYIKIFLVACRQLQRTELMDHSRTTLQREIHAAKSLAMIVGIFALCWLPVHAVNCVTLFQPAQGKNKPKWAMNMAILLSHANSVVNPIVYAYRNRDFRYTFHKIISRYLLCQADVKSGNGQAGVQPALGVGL
Kind of assay: Cellular in vitro reporter gene test for A2b receptor activity (antagonism of NECA). In kind it is cell-based. On the set-up: expressed in transfected cells; host or cells: CHO-K1 (Chinese hamster ovary) with CRE-luciferase reporter. As to conditions: recombinant CHO-K1 cells, CRE-luciferase reporter, co-incubation with EC50 concentration of NECA, 3 hours. The procedure, abridged:
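CHO-K1 cells expressing recombinant human A2b receptor plus a CRE-driven firefly luciferase reporter. Compounds co-incubated with NECA at its same-day EC50 concentration; luminescence read 3 hours after NECA addition. IC50 values, sometimes means of several determinations rounded to two significant figures.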
On the technique in general: A reporter such as luciferase makes a cellular process visible.

For orientation: pIC50 means the negative decadic logarithm of the IC50, by convention in mol/L. `Cc1c(Cn2nc[nH]c2=O)sc2c1c(=O)n([C@H]1C[C@@H]1C)c(=O)n2C` [Example 220, 1,5-Dimethyl-3-[(1S,2S)-2-methylcyclopropyl]-6-[(5-oxo-4,5-dihydro-1H-1,2,4-triazol-1-yl)methyl]thieno[2,3-d]pyrimidine-2,4(1H,3H)-dione]: the pIC50 was 7.48.

For `Cc1c(Cn2cc[nH]c2=O)sc2c1c(=O)n(C1(C)CC1)c(=O)n2CCC(F)(F)F` [Example 214, 5-Methyl-3-(1-methylcyclopropyl)-6-[(2-oxo-2,3-dihydro-1H-imidazol-1-yl)methyl]-1-(3,3,3-trifluoropropyl)thieno[2,3-d]pyrimidine-2,4(1H,3H)-dione], the pIC50 is 8.00.

As for `Cc1c(CN2CCNC2=O)sc2c1c(=O)n(C1CC1C)c(=O)n2CC1CCOC1` (stereo not shown) [Example 289, 5-Methyl-3-(2-methylcyclopropyl)-6-[(2-oxoimidazolidin-1-yl)methyl]-1-(tetrahydrofuran-3-ylmethyl)thieno[2,3-d]pyrimidine-2,4(1H,3H)-dione], the pIC50 was 7.46.

On to `Cc1c(CN2CCNC(=O)C2=O)sc2c1c(=O)n(C1CC3(CCC3)C1)c(=O)n2CCC(F)(F)F` [Example 177, 6-[(2,3-Dioxopiperazin-1-yl)methyl]-5-methyl-3-(spiro[3.3]hept-2-yl)-1-(3,3,3-trifluoropropyl)thieno[2,3-d]pyrimidine-2,4(1H,3H)-dione], for which the pIC50 is 7.77.

Take `Cc1c(Cn2[nH]ccc2=O)sc2c1c(=O)n(C1CC1C)c(=O)n2CCOC(F)(F)F` (single isomer, unassigned) [Example 274, 5-Methyl-3-(2-methylcyclopropyl)-6-[(5-oxo-2,5-dihydro-1H-pyrazol-1-yl)methyl]-1-[2-(trifluoromethoxy)ethyl]thieno[2,3-d]pyrimidine-2,4(1H,3H)-dione]: the pIC50 is 7.07.

For the compound `COCCn1c(=O)n([C@H]2C[C@@H](OC)C2)c(=O)c2c(C)c(CN3CCNC(=O)C3=O)sc21` [Example 162, 6-[(2,3-Dioxopiperazin-1-yl)methyl]-3-(cis-3-methoxycyclobutyl)-1-(2-methoxyethyl)-5-methylthieno[2,3-d]pyrimidine-2,4(1H,3H)-dione], the pIC50 was 6.14.

Turning to `Cc1c(Cn2nc[nH]c2=O)sc2c1c(=O)n([C@H]1C[C@@H]1C)c(=O)n2CC(F)(F)F` [Example 321, 5-Methyl-3-[(1S,2S)-2-methylcyclopropyl]-6-[(5-oxo-4,5-dihydro-1H-1,2,4-triazol-1-yl)methyl]-1-(2,2,2-trifluoroethyl)thieno[2,3-d]pyrimidine-2,4(1H, 3H)-dione], the pIC50 is 7.77.

Turning to `COCCn1c(=O)n([C@H]2C[C@H](OC)C2)c(=O)c2c(C)c(Cn3nc[nH]c3=O)sc21` [Example 153, 3-(trans-3-Methoxycyclobutyl)-1-(2-methoxyethyl)-5-methyl-6-[(5-oxo-4,5-dihydro-1H-1,2,4-triazol-1-yl)methyl]thieno[2,3-d]pyrimidine-2,4(1H,3H)-dione], the pIC50 is 6.66.

For `Cc1c(CN2CCNC2=O)sc2c1c(=O)n(C1CC1C)c(=O)n2CC1CCOC1` (single isomer, unassigned) [Example 291, 5-Methyl-3-(2-methylcyclopropyl)-6-[(2-oxoimidazolidin-1-yl)methyl]-1-(tetrahydrofuran-3-ylmethyl)thieno[2,3-d]pyrimidine-2,4(1H,3H)-dione], the pIC50 was 7.72.

Regarding `CCC1CC1n1c(=O)c2c(C)c(Cn3nc[nH]c3=O)sc2n(CCOC)c1=O` (single isomer, unassigned) [Example 304, 3-(2-Ethylcyclopropyl)-1-(2-methoxyethyl)-5-methyl-6-[(5-oxo-4,5-dihydro-H-1,2,4-triazol-1-yl)methyl]thieno[2,3-d]pyrimidine-2,4(1H,3H)-dione], the pIC50 is 6.46.

As to `Cc1c(CN2CCNC2=NC#N)sc2c1c(=O)n(C1CC1C)c(=O)n2CCOC(F)(F)F` (racemic) [Example 264, [1-({5-Methyl-3-(2-methylcyclopropyl)-2,4-dioxo-1-[2-(trifluoromethoxy)ethyl]-1,2,3,4-tetrahydrothieno[2,3-d]pyrimidin-6-yl}methyl)imidazolidin-2-ylidene]cyanamide], the pIC50 is 7.80.

Take `COCCn1c(=O)n(C2CC2C(F)(F)F)c(=O)c2c(C)c(Cn3nc[nH]c3=O)sc21` (single isomer, unassigned) [Example 298, 1-(2-Methoxyethyl)-5-methyl-6-[(5-oxo-4,5-dihydro-1H-1,2,4-triazol-1-yl)methyl]-3-[2-(trifluoromethyl)cyclopropyl]thieno[2,3-d]pyrimidine-2,4(1H,3H)-dione]: the pIC50 was 5.74.

In the case of `COCCn1c(=O)n(C2CC2OC)c(=O)c2c(C)c(CN3CCNC3=O)sc21` (single isomer, unassigned) [Example 307, 3-(2-Methoxycyclopropyl)-1-(2-methoxyethyl)-5-methyl-6-[(2-oxoimidazolidin-1-yl)methyl]thieno[2,3-d]pyrimidine-2,4(1H,3H)-dione], the pIC50 is 8.09.

For `Cc1c(CN2CCNC2=O)sc2c1c(=O)n(C1CC1(C)C)c(=O)n2CCCF` (single isomer, unassigned) [Example 99, 3-(2,2-Dimethylcyclopropyl)-1-(3-fluoropropyl)-5-methyl-6-[(2-oxoimidazolidin-1-yl)methyl]thieno[2,3-d]pyrimidine-2,4(1H,3H)-dione], the pIC50 is 7.55.

Take `COCCn1c(=O)n(C2CC2OC)c(=O)c2c(C)c(Cn3nc[nH]c3=O)sc21` (racemic) [Example 309, 3-(2-Methoxycyclopropyl)-1-(2-methoxyethyl)-5-methyl-6-[(5-oxo-4,5-dihydro-1H-1,2,4-triazol-1-yl)methyl]thieno[2,3-d]pyrimidine-2,4(1H,3H)-dione]: the pIC50 was 6.96.

In the case of `Cc1c(CN2CCNC2=O)sc2c1c(=O)n(C1CC1C)c(=O)n2CCCF` (racemic) [Example 90, 1-(3-Fluoropropyl)-5-methyl-3-(2-methylcyclopropyl)-6-[(2-oxoimidazolidin-1-yl)methyl]thieno[2,3-d]pyrimidine-2,4(1H,3H)-dione], the pIC50 is 8.28.

Take `COCCn1c(=O)n(C2CCC2)c(=O)c2c(C)c(CN3CCNC3=NC(=O)OC)sc21` [Example 117, Methyl [1-{[3-cyclobutyl-1-(2-methoxyethyl)-5-methyl-2,4-dioxo-1,2,3,4-tetrahydrothieno[2,3-d]pyrimidin-6-yl]methyl}imidazolidin-2-ylidene]carbamate]: the pIC50 was 8.89.

Consider `Cc1c(CN2CCNC2=NC#N)sc2c1c(=O)n(C1(C)CCC1)c(=O)n2CCC(F)(F)F` [Example 135, [1-{[5-Methyl-3-(1-methylcyclobutyl)-2,4-dioxo-1-(3,3,3-trifluoropropyl)-1,2,3,4-tetrahydrothieno[2,3-d]pyrimidin-6-yl]methyl}imidazolidin-2-ylidene]cyanamide], for which the pIC50 was 7.32.

With `COC(=O)N=C1NCCN1Cc1sc2c(c1C)c(=O)n(C1CC1C)c(=O)n2CCOC(F)(F)F` (racemic) [Example 267, Methyl [1-({5-methyl-3-(2-methylcyclopropyl)-2,4-dioxo-1-[2-(trifluoromethoxy)ethyl]-1,2,3,4-tetrahydrothieno[2,3-d]pyrimidin-6-yl}methyl)imidazolidin-2-ylidene]carbamate], the pIC50 is 8.62.

(Values after patent US20200016159A1, “N3-CYCLICALLY SUBSTITUTED THIENOURACILS AND USE THEREOF” (Bayer Aktiengesellschaft, priority 2016, published 2020).)
